Values quoted from earlier work as cited in patent publication US20230181603A1, “METHODS OF TREATING CANCER WITH METABOLITE ADJUSTMENTS” (priority 2021, published 2023).

Legend:
glial precursor cell = conditions: slice cultures

For `CCCCCCCCCCCCCCCC(=O)OC[C@H](O)[C@H]1OC(=O)C(O)=C1O` [Ascorbyl palmitate], the “inhibition of glial precursor cell migration” value (glial precursor cell) is listed as “potently inhibits” and the “hyaluronidase inhibitor effective concentration” value (hyaluronidase) is listed as “low-micromolar range”.
